The results in this text go back to patent US20210353579A1, “HIGH PENETRATION COMPOSITIONS AND USES THEREOF” (Techfields Pharma Co., Ltd., priority 2006, published 2021).

Data set [1] relates to Human breast cancer cells (BCAP-37). Nature of the data set: Human breast cancer xenograft in nude mice, topical. The note with it: day 42, 30 μl of 5% (1.5 mg) topically every 8 hours from day 14; for Tumor size: control 800 ± 100. The procedure:
Human breast cancer cells (BCAP-37, 2-3 mm^3 of tumor tissue was used in each mouse) are subcutaneously xenografted into the front leg of nude mice (BALB, 12 groups, 7 mice each group). […] Then 30 μl of 5% (equal to 1.5 mg of the HPPs) diethylaminoethyl acetylsalicylate.acetylsalicylic acid salt (P-1, in acetone); 1-piperidinepropyl 2[(2,6-dichlorophenyl)amino]benzene acetate.AcOH (P-2, in water), 1-pyrrolidinepropyl 2-(3-benzoylphenyl) propionate.AcOH (P-3, in water), 4-piperidinemethyl 2-(3-phenoxyphenyl)propionate.AcOH (P-4, in water), 3-piperidinemethyl 2-(ρ-isobutylphenyl) propionate.AcOH (P-5, in water), diethylaminoethyl 1-(p-chlorobenzoyl)-5-methoxy-2-methylindole 3-acetate.AcOH (P-11, in water), 2-(4-morpholinyl)ethyl (Z)-5-fluoro-2-methyl-1-[(4-methylsulfinyl) phenylmethylene]-1H-indene-3-acetate.AcOH (P-12, in water), diethylaminoethyl

Data set [2] deals with Human colon cancer cells (LS174J). Nature of the data set: Human colon cancer xenograft in nude mice, topical. As to conditions: day 30, about 30 μl of 5% solution (1.5 mg) topically applied. From the text:
Human colon cancer cells (LS174J, 2-3 mm^3 of tumor tissue was used in each mouse) are subcutaneously xenografted into the front leg of nude mice (BALB).

Data set [3] deals with rat. The note with it: rats.
Description: The acute toxicity of the prodrug compounds and parent compounds are measured by LD50 of rat.
A short description of data set [4]: Plasma levels after transdermal administration to hairless mice. The data set is classed as in vivo. The note with it: mouse, in vivo. The procedure:
Tested compounds (20% solution or suspension in 1 mL isopropanol) are administered transdermally to the skin of intact hairless mice. The plasma levels of the parent compounds are determined by HPLC.

The subject of data set [5] is rats. Nature of the data set: Antipyretic activity, E. coli suspension as pyrogen. The data set is classed as in vivo. The note with it: in °C (unit assumed). The procedure:
Rats are administered with sterilized E. coli suspension as a pyrogen. Each group of rats are administered with a prodrug compounds or parent compounds at a dosage specified below. The prodrug compounds are administered either orally or transdermally. The parent compounds are administered orally.

The test system of data set [6] is human skin tissue. As to conditions: pH 7.4.
Data set [7] has as its system mice. Nature of the data set: Analgesic activity, acetic acid writhing. In kind it is in vivo. The procedure:
The prodrug compounds are administered either transdermally or orally. The parent compounds are administered orally. The number of writhing that occurred when mice are administered the acetic acid solution are counted, and the rate of inhibition based on the control group which was not pretreated with any test compounds is calculated. […] The A group is the control group.
(In general: Writhing tests count abdominal constrictions after an irritant is injected.)

Data set [8] concerns Chinese white rabbits. Nature of the data set: Malassezia-induced lesions similar to psoriasis. The data set is classed as in vivo, rabbit. As to conditions: 5% aqueous solution twice per day, 10 days after application. The text has this: Heavy suspensions of Malassezia [Rosenberg, E. W., et al., Mycopathologia, 72, 147-154 (1980)] were applied to the shaved skin on the backs of the Chinese white rabbits (n=4×6) twice (at 7 am and 7 pm) per day for 2 weeks, lesions similar to psoriasis resulted.

[9] abbreviates: 50 mg/kg transdermally, 60 minutes before acetic acid.
Setting [10] is: 100 mg/kg transdermally, 30 min before acetic acid.
The mark [11] stands for this setting: 100 mg/kg transdermally, 60 minutes before acetic acid.
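For LD50 of HPP in this document: acute toxicity in rats expressed as LD50, determined for both prodrugs and their parent compounds.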

Take `CC(=O)O.CC(C(=O)OCC1CCNCC1)c1cccc(Oc2ccccc2)c1` (stereo not drawn) [P-4, 4-piperidinemethyl 2-(3-phenoxyphenyl)propionate.AcOH]: the values for the Tumor size in data set [1] and in data set [2] were 180 ± 50 mm^3 and 480 ± 120 mm^3, respectively.

For `CC(=O)O.O=C(Cc1ccccc1Nc1c(Cl)cccc1Cl)OCCCN1CCCCC1` [P-2, 1-piperidinepropyl 2[(2,6-dichlorophenyl)amino]benzene acetate.AcOH], the Mouse weight in data set [1] (control 22 ± 2) and in data set [2] was 22 ± 2 g each time. Further, the Tumor size in data set [1] was 180 ± 50 mm^3; in data set [2], 480 ± 180 mm^3.

Take `CC(=O)O.Nc1c(CC(=O)OCCN2CCOCC2)cccc1C(=O)c1ccccc1` [P-16, 2-(4-morpholinyl)ethyl 2-amino-3-benzoylbenzeneacetate.AcOH]: the Tumor size in data set [2] is on record as 550 ± 150 mm^3.

For “N-(2-thiazolyl)-4-N,N-dimethylaminobutyryloxy-2-methyl-2H,1,2-benzothiazine-3-carboxamide 1,1-dioxide.HCl”, the “LD50 of HPP” value in data set [3] is 670 mg/kg. In data set [4], the “Peak plasma concentration of parent compound after prodrug compound” value (“Peak plasma concentration” below) is listed as 20 mg/L and the “t, time to peak plasma level of parent compound after prodrug compound” value (from here on “t, time to peak plasma level”) was determined as 50 min. In data set [5] (25 mg/kg transdermally), the “body temperature, t = 0 min” value was 37.50 ± 0.07; the “body temperature, t = 90 min” value is given as 36.61 ± 0.04; the “body temperature, t = 180 min” value is 36.50 ± 0.07; the “body temperature, t = 270 min” value came out at 36.60 ± 0.05. In addition, the “In vitro penetration rate (apparent flux), prodrug compounds” value (“In vitro penetration rate” for short) in data set [6] amounted to 1500 μg/cm^2/h. Further, in data set [7] (setting [9]), the “% (rate of writhing inhibition)” value is given as 55% and the “No. of Writhing” value amounted to 15.7. In data set [2], this molecule displayed a Tumor size of 690 ± 250 mm^3.

With `CC(=O)O.CCN(CC)CCOC(=O)Cc1ccccc1Oc1ccc(Cl)cc1Cl` [diethylaminoethyl 2-(2,4-dichlorophenoxy)benzeneacetate.AcOH], the “LD50 of HPP” value in data set [3] turned out to be 200 mg/kg. For the same molecule, in data set [4], the “Peak plasma concentration” value turned out to be 20 mg/L and the “t, time to peak plasma level” value was determined as 50 min. In addition, in data set [5] (100 mg/kg transdermally), the “body temperature, t = 0 min” value is listed as 37.22 ± 0.06; the “body temperature, t = 90 min” value was 36.65 ± 0.06; the “body temperature, t = 180 min” value came out at 36.58 ± 0.08; the “body temperature, t = 270 min” value turned out to be 36.56 ± 0.07. For the same molecule, the “In vitro penetration rate” value in data set [6] turned out to be 1500 μg/cm^2/h. In data set [1], this molecule came in with a Tumor size of 280 ± 50 mm^3. Besides, in data set [7] (setting [10]), the “% (rate of writhing inhibition)” value is listed as 59% and the “No. of Writhing” value is given as 14.2.

In the case of `CC(=O)O.CCN(CC)CCOC(=O)C(C)c1ccc2c(c1)CC(=O)c1ccccc1S2` (stereo not drawn) [diethylaminoethyl 2-(10, 11-dihydro-10-oxodibenzo(b,f)thiepin-2-yl)propionate.AcOH], in data set [4], the “Peak plasma concentration” value came to 2000 mg/L and the “t, time to peak plasma level” value amounted to 50 min. For the same molecule, in data set [5] (100 mg/kg transdermally), the “body temperature, t = 0 min” value came to 37.25 ± 0.06; the “body temperature, t = 90 min” value amounted to 36.71 ± 0.05; the “body temperature, t = 180 min” value is 36.65 ± 0.08; the “body temperature, t = 270 min” value turned out to be 36.64 ± 0.07. The “In vitro penetration rate” value in data set [6] was 3700 μg/cm^2/h. Moreover, in data set [7] (setting [10]), the “% (rate of writhing inhibition)” value worked out at 59% and the “No. of Writhing” value turned out to be 14.2. The molecule also registered a Tumor size in data set [2] of 480 ± 180 mm^3.

On to `CC(=O)O.CCN(CC)CCOC(=O)c1ccccc1Nc1c(Cl)ccc(C)c1Cl` [diethylaminoethyl 2-[(2,6-dichloro-3-methylphenyl)amino]benzoate.AcOH], for which the “LD50 of HPP” value in data set [3] turned out to be 1000 mg/kg. In data set [4], the “Peak plasma concentration” value stood at 20 mg/L and the “t, time to peak plasma level” value is 50 min. In addition, in data set [5] (100 mg/kg transdermally), the “body temperature, t = 0 min” value is recorded as 37.28 ± 0.06; the “body temperature, t = 90 min” value is 36.68 ± 0.05; the “body temperature, t = 180 min” value came out at 36.62 ± 0.08; the “body temperature, t = 270 min” value is 36.58 ± 0.07. For the same molecule, the “In vitro penetration rate” value in data set [6] turned out to be 2000 μg/cm^2/h. Moreover, in data set [7] (setting [11]), the “% (rate of writhing inhibition)” value turned out to be 59% and the “No. of Writhing” value is 14.2. Besides, the Tumor size in data set [2] came out at 490 ± 150 mm^3.

As to `CC(=O)O.CCN(CC)CCOC(=O)Cc1cn(-c2ccccc2)nc1-c1ccc(Cl)cc1` [diethylaminoethyl 3-(4-chlorophenyl)-1-phenyl-1H-pyrazole-4-acetate.AcOH], the “LD50 of HPP” value in data set [3] is 1200 mg/kg. Also, in data set [4], the “Peak plasma concentration” value is on record as 20 mg/L and the “t, time to peak plasma level” value is listed as 50 min. Besides, in data set [5] (100 mg/kg transdermally), the “body temperature, t = 0 min” value is 37.22 ± 0.07; the “body temperature, t = 90 min” value is 36.82 ± 0.06; the “body temperature, t = 180 min” value turned out to be 36.80 ± 0.05; the “body temperature, t = 270 min” value was determined as 36.77 ± 0.08. In addition, in data set [8], the “lesions similar to psoriasis” value is recorded as “the lesions were resolved”. Besides, in data set [7] (setting [10]), the “% (rate of writhing inhibition)” value is on record as 57% and the “No. of Writhing” value is listed as 15.2.

Turning to `CN(C)CCCC(=O)OC1=C(C(=O)Nc2ccccn2)N(C)S(=O)(=O)c2ccccc21.Cl` [4-N,N-dimethylaminobutyryloxy-2-methyl-N-2-pyridinyl-2H,1,2-benzothiazine-3-carboxamide 1,1-dioxide.HCl], the “LD50 of HPP” value in data set [3] was determined as 550 mg/kg. For the same molecule, the “Peak plasma concentration” value in data set [4] amounted to 20 mg/L. For the same molecule, in data set [5] (25 mg/kg transdermally), the “body temperature, t = 0 min” value worked out at 37.57 ± 0.06; the “body temperature, t = 90 min” value stood at 36.51 ± 0.05; the “body temperature, t = 180 min” value is given as 36.40 ± 0.06; the “body temperature, t = 270 min” value stood at 36.45 ± 0.07. The “In vitro penetration rate” value in data set [6] was determined as 1700 μg/cm^2/h. This molecule also came in with a Tumor size in data set [1] of 390 ± 50 mm^3. In addition, in data set [7] (setting [9]), the “% (rate of writhing inhibition)” value amounted to 55% and the “No. of Writhing” value turned out to be 15.6.

On to `CC(=O)O.CCN(CC)CCOC(=O)C(C)c1ccc2c(c1)C(=O)Cc1cc(C)ccc1O2` (stereo not drawn) [diethylaminoethyl 2-(8-methyl-10, 11-dihydro-11-oxodibenz(b,f)oxepin-2-yl)propionate.AcOH], for which, in data set [4], the “Peak plasma concentration” value is 2000 mg/L and the “t, time to peak plasma level” value is listed as 50 min. Also, in data set [5] (100 mg/kg transdermally), the “body temperature, t = 0 min” value was 37.26 ± 0.07; the “body temperature, t = 90 min” value is 36.80 ± 0.06; the “body temperature, t = 180 min” value stood at 36.70 ± 0.05; the “body temperature, t = 270 min” value amounted to 36.57 ± 0.08. In data set [6], the “In vitro penetration rate” value amounted to 4100 μg/cm^2/h. In data set [1], this molecule yielded a Tumor size of 250 ± 50 mm^3. In data set [7] (setting [10]), the “% (rate of writhing inhibition)” value is reported as 61% and the “No. of Writhing” value is listed as 13.8.

As to `CC(=O)O.CCN(CC)CCOC(=O)c1ccccc1Nc1cccc(C)c1C` [diethylaminoethyl 2-[(2,3-dimethylphenyl)amino]benzoate.AcOH], in data set [3], the “LD50 of HPP” value came out at 900 mg/kg. Also, in data set [4], the “Peak plasma concentration” value is 20 mg/L and the “t, time to peak plasma level” value was determined as 50 min. For the same molecule, in data set [5] (100 mg/kg transdermally), the “body temperature, t = 0 min” value is 37.35 ± 0.06; the “body temperature, t = 90 min” value was found to be 36.71 ± 0.05; the “body temperature, t = 180 min” value was 36.60 ± 0.08; the “body temperature, t = 270 min” value came out at 36.59 ± 0.07. Moreover, in data set [6], the “In vitro penetration rate” value came out at 2100 μg/cm^2/h. For the same molecule, in data set [7] (setting [11]), the “% (rate of writhing inhibition)” value worked out at 55% and the “No. of Writhing” value amounted to 15.6. Further, in data set [2], the Tumor size was found to be 650 ± 250 mm^3.

With `CC(=O)O.CC(C(=O)OCCCN1CCCC1)c1cccc(C(=O)c2ccccc2)c1` (stereo not drawn) [P-3, 1-pyrrolidinepropyl 2-(3-benzoylphenyl) propionate.AcOH], the Tumor size in data set [1] was found to be 200 ± 50 mm^3; in data set [2], 500 ± 150 mm^3.
